SMILES strings stand for the structures.

Our source for the IC50 and inhibition values is patent US10940139B2, “Compounds that interact with the Ras superfamily for the treatment of cancers, inflammatory diseases, rasopathies, and fibrotic disease” (Shy Therapeutics LLC, priority 2017, dated 2021).

One assay concerns MIA-PACA2 pancreatic cancer cell lines. The experiment in a line: Cell proliferation assay (CellTiter 96 AQueous One). In kind it is cell-based. Particulars: Homo sapiens, MIA PaCa-2; MIA-PACA2, same assay as the % inhibition (standard conditions).
With `Oc1nc(-c2ccccn2)nc2c(-c3cccc4c3OCO4)csc12` [drawing 1725], the IC50 was 100 to 500 nM. As to `Oc1nc(-c2ccccn2)nc2scc(Br)c12` [drawing 1589], the IC50 was 100 to 500 nM. In turn, `CC(C)(C)c1ccc(-c2csc3c(O)nc(-c4ccccn4)nc23)cc1` [drawing 1723] yielded an IC50 of 100 to 500 nM. On the same count and under the same terms, then `COc1ccnc(-c2nc(O)c3c(Br)csc3n2)c1` [drawing 1637], with 100 to 500 nM.

The assay is the same for the next values; noted with them: Homo sapiens, MIA PaCa-2; at 30 μM, MIA-PACA2.
In turn, `CCCOc1ccc2ccccc2c1CN(C)S(=O)(=O)N1CC(C)OC(C)C1` (stereo not shown) [drawing 1531] displayed an inhibition at 30 µM of 76 to 100%. `Cc1c(C(=O)Nc2nnc(-c3ccccn3)[nH]2)oc2ccccc12` [drawing 1395] gave an inhibition at 30 µM of 76 to 100%. `OC1CCN(c2nc(-c3ccccn3)nc3scc(-c4ccccc4)c23)CC1` [drawing 1619] showed an inhibition at 30 µM of 76 to 100%. Still for that read-out and setting: then `CC(C(=O)Nc1ccnc(-c2ccccn2)n1)c1ccc(C#N)cc1` (stereo not shown) [drawing 1687], with 76 to 100%. Consider `COc1ccc(C2CN(C(=O)c3csc4c(O)nc(-c5ccccn5)nc34)CCN2)cc1` (stereo not shown) [drawing 1667], for which the inhibition at 30 µM fell in the range of 25 to 50%. The compound `O=C(Nc1nnc(-c2ccccn2)[nH]1)c1ccc(Oc2ccccc2)nc1` [drawing 1410] registered an inhibition at 30 µM of 51 to 75%.

`O=C(c1csc2c(O)nc(-c3ccccn3)nc12)N1CCNC(c2ccc(O)cc2)C1` (stereo not shown) [drawing 1701] returned an inhibition at 30 µM of 76 to 100%. In turn, `N#Cc1cccc(N2CCN(C(=O)c3csc4c(O)nc(-c5ccccn5)nc34)CC2)c1` [drawing 1649] showed an inhibition at 30 µM of 76 to 100%. Same read-out and setting: the value for `c1ccc(-c2csc3nc(-c4ccccn4)nc(NN4CCOCC4)c23)cc1` [drawing 1623] was 76 to 100%; that for `Oc1nc(-c2ccccn2)nc2c(-c3cccc4c3OCO4)csc12` [drawing 1725] was 76 to 100%; that for `COC(=O)c1cc(NC(=O)CCc2c(C)nc(-c3ccccn3)nc2O)ccc1Cl` [drawing 1506] was 76 to 100%. The same measure, in the same setting: the value for `O=C(Cc1cccs1)Nc1nnc(-c2ccccn2)[nH]1` [drawing 1409] was 1 to 25%. Same read-out and setting: then `COc1cccc(C2CN(C(=O)c3csc4c(O)nc(-c5ccccn5)nc34)CCN2)c1` (stereo not shown) [drawing 1666], with 76 to 100%.

For `O=C(c1ccn(-c2ccccc2)n1)N1CCCc2c(O)nc(-c3ccccn3)nc21` [drawing 1546], the inhibition at 30 µM fell in the range of 76 to 100%.

`O=C(NCCc1ccc(O)c(O)c1)c1csc2nc(-c3ccccn3)nc(N3CCOCC3)c12` [drawing 1678] came in with an inhibition at 30 µM of 76 to 100%. Same read-out and setting: the value for `O=C(Nc1nnc(-c2ccccn2)[nH]1)C1Cc2ccccc2O1` (stereo not shown) [drawing 1422] was 1 to 25%. Same read-out and setting: the value for `O=c1nc(-c2ccccn2)[nH]c2scc(-c3ccccc3Cl)c12` [drawing 1492] was 76 to 100%. Same read-out and setting: then `CCN(CC)C(=O)c1sc2[nH]c(-c3ccccn3)nc(=O)c2c1C` [drawing 1496], with 76 to 100%. Compound `O=C(Cn1c(=O)[nH]c2ccccc21)Nc1nnc(-c2ccccn2)[nH]1` [drawing 1448] came in with an inhibition at 30 µM of 25 to 50%. The same measure, in the same setting: the value for `O=C(C1CCN(c2nc(-c3ccccn3)nc3scc(-c4ccccc4)c23)CC1)N1CCCCC1` [drawing 1622] was 76 to 100%; that for `O=C(COCc1ccnc(O)c1)Nc1nc(-c2ccccn2)nc2sccc12` [drawing 1733] was 51 to 75%.

The compound `COCCCC(=O)N1CCCc2c(O)nc(-c3ccccn3)nc21` [drawing 1550] displayed an inhibition at 30 µM of 76 to 100%. On the same count and under the same terms, then `COc1ccncc1CCNC(=O)c1csc2nc(-c3ccccn3)nc(N3CCOCC3)c12` [drawing 1673], with 76 to 100%; and `Cc1cnccc1-c1csc2c(O)nc(-c3ccccn3)nc12` [drawing 1764], with 76 to 100%; and `COc1ccc(N2CCN(C(=O)c3csc4c(O)nc(-c5ccccn5)nc34)CC2)c(OC)c1` [drawing 1652], with 76 to 100%. On the same count and under the same terms, the value for `Cc1ccc(C(=O)Nc2nnc(-c3ccccn3)[nH]2)cc1S(C)(=O)=O` [drawing 1391] was 51 to 75%.

The compound `Oc1nc(-c2ccccn2)nc2scc(Br)c12` [drawing 1589] registered an inhibition at 30 µM of 76 to 100%. Consider `CC(C(=O)Nc1nc(-c2ccccn2)nc2sccc12)c1ccc(C#N)cc1` (stereo not shown) [drawing 1691], for which the inhibition at 30 µM is 76 to 100%. Same read-out and setting: then `O=C(Cc1ccccc1)NCCC(=O)Nc1nnc(-c2ccccn2)[nH]1` [drawing 1413], with 1 to 25%; and `COc1ccc(OCc2nc(CNCCc3nnc4n3CCC4)cs2)cc1` [drawing 1472], with 76 to 100%. In turn, `O=S(=O)(c1ccccc1)N1CCCc2c(O)nc(-c3ccccn3)nc21` [drawing 1553] displayed an inhibition at 30 µM of 25 to 50%. Take `O=C(c1csc2c(O)nc(-c3ccccn3)nc12)N1CCOC(c2nccs2)C1` (stereo not shown) [drawing 1636]: the inhibition at 30 µM was 76 to 100%. Same read-out and setting: then `Cc1cccc(C)c1OCCOC(=O)c1ccccc1SCCOc1c(C)cccc1C` [drawing 1541], with 51 to 75%; and `Oc1nc(-c2ccccn2)nc2c(-c3ccccc3F)csc12` [drawing 1744], with 76 to 100%; and `O=C(Nc1nnc(-c2ccccn2)[nH]1)C1CCN(C(=O)c2cccs2)CC1` [drawing 1465], with 76 to 100%. The same measure, in the same setting: the value for `O=C(Nc1nnc(-c2ccccn2)[nH]1)c1ccc(OCC2CC2)cc1` [drawing 1434] was 76 to 100%.

`Cc1c(C(=O)N(C)C)sc2[nH]c(-c3ccccn3)nc(=O)c12` [drawing 1497]: the inhibition at 30 µM lay within 51 to 75%. In turn, `COc1cccc(CN2CCN(C(=O)c3csc4c(O)nc(-c5ccccn5)nc34)CC2)c1` [drawing 1656] had an inhibition at 30 µM of 76 to 100%. As to `Nc1nc(-c2ccccn2)nc2c(-c3ccccc3)csc12` [drawing 1735], the inhibition at 30 µM lay in the range of 76 to 100%. In the case of `CN(CC(=O)Nc1nnc(-c2ccccn2)[nH]1)S(=O)(=O)c1ccccc1` [drawing 1467], the inhibition at 30 µM was in the range of 1 to 25%. With `O=c1nc(-c2ccccn2)[nH]c2c1CCC2` [drawing 1498], the inhibition at 30 µM lay in the range of 1 to 25%. As to `Oc1nc(-c2ccccn2)nc2c(-c3ccc(CN4CCOCC4)cc3)csc12` [drawing 1758], the inhibition at 30 µM was 76 to 100%. Take `O=C(Nc1nnc(-c2ccccn2)[nH]1)C1CCCN(c2cnccn2)C1` (stereo not shown) [drawing 1439]: the inhibition at 30 µM lay within 76 to 100%. Take `CC(OCc1ccccc1)C(=O)Nc1nnc(-c2ccccn2)[nH]1` (stereo not shown) [drawing 1428]: the inhibition at 30 µM fell in the range of 51 to 75%. Still for that read-out and setting: then `Oc1nc(-c2ccccn2)nc2c(-c3cnc4ccccc4c3)csc12` [drawing 1784], with 76 to 100%; and `O=C(CCc1cnn(-c2ccccc2)c1)Nc1nnc(-c2ccccn2)[nH]1` [drawing 1383], with 76 to 100%. Take `Nc1nc(O)c2nc[nH]c2n1` [drawing 1629]: the inhibition at 30 µM fell in the range of 1 to 25%. `Cc1nc(-c2ccccn2)nc(O)c1CCC(=O)NCCc1cccs1` [drawing 1502]: the inhibition at 30 µM fell in the range of 76 to 100%. Still for that read-out and setting: then `CC(Oc1ccc(C(=O)Nc2nnc(-c3ccccn3)[nH]2)cn1)c1ccccc1` (stereo not shown) [drawing 1425], with 76 to 100%; and `CCn1nnc2cc(C(=O)Nc3nnc(-c4ccccn4)[nH]3)ccc21` [drawing 1420], with 51 to 75%; and `Oc1nc(-c2ccccn2)nc2c(-c3cc(C(F)(F)F)ccc3F)csc12` [drawing 1787], with 76 to 100%.

The compound `O=C(Nc1nnc(-c2ccccn2)[nH]1)c1ncoc1-c1cccs1` [drawing 1416] showed an inhibition at 30 µM of 76 to 100%. The same measure, in the same setting: the value for `COCCCCNC(=O)c1csc2nc(-c3ccccn3)nc(N3CCOCC3)c12` [drawing 1682] was 76 to 100%. On the same count and under the same terms, the value for `Cc1nnc(C(Nc2nc(-c3ccccn3)nc3scc(-c4ccccc4)c23)c2ccccc2)n1C` (stereo not shown) [drawing 1596] was 76 to 100%. `CCOCCC1CCN(C(=O)c2csc3c(O)nc(-c4ccccn4)nc23)CC1` [drawing 1565]: the inhibition at 30 µM lay in the range of 76 to 100%.

With `COCC1CCN(C(=O)c2csc3c(O)nc(-c4ccccn4)nc23)CC1` [drawing 1564], the inhibition at 30 µM is 76 to 100%. Consider `CC(C)(C)c1nc(C(=O)Nc2nnc(-c3ccccn3)[nH]2)cs1` [drawing 1454], for which the inhibition at 30 µM is 76 to 100%. Still for that read-out and setting: then `O=C(c1csc2c(O)nc(-c3ccccn3)nc12)N1CCN(Cc2ccc(O)c(Cl)c2)CC1` [drawing 1658], with 76 to 100%; and `CC(C)(C)c1ccc(-c2csc3c(O)nc(-c4ccccn4)nc23)cc1` [drawing 1723], with 76 to 100%; and `CCN(CC)S(=O)(=O)c1cc(C)c(C)c(NC(=O)CCc2c(C)nc(-c3ccccn3)nc2O)c1` [drawing 1508], with 76 to 100%. In turn, `COc1ccc(COCC(=O)Nc2ccnc(-c3ccccn3)n2)cn1` [drawing 1585] returned an inhibition at 30 µM of 1 to 25%. On the same count and under the same terms, then `O=C(Nc1nc(-c2ccccn2)cs1)c1cccc(F)c1` [drawing 1474], with 76 to 100%; and `O=S(=O)(CCc1ccccc1)N1CCCc2c(O)nc(-c3ccccn3)nc21` [drawing 1552], with 1 to 25%. For `Oc1nc(-c2ccccn2)nc2c(-c3ccccc3OC3CCCCC3)csc12` [drawing 1742], the inhibition at 30 µM was in the range of 76 to 100%. Still for that read-out and setting: the value for `Cc1cnc(-c2ccccn2)nc1NC(=O)C1CCCc2cc(C#N)ccc21` (stereo not shown) [drawing 1703] was 76 to 100%. `Cc1nc(-c2ccccn2)nc(O)c1CCC(=O)Nc1ccc(C(C)C)cc1` [drawing 1505]: the inhibition at 30 µM lay in the range of 76 to 100%.

In the case of `COc1ccccc1-c1csc2c(O)nc(-c3ccccn3)nc12` [drawing 1746], the inhibition at 30 µM was in the range of 76 to 100%. Still for that read-out and setting: the value for `N#CCc1ccc(OCC(=O)Nc2nnc(-c3ccccn3)[nH]2)cc1` [drawing 1462] was 1 to 25%.

In turn, `COc1ccnc(-c2nc(O)c3c(Cl)csc3n2)c1` [drawing 1693] came in with an inhibition at 30 µM of 76 to 100%. The same measure, in the same setting: then `O=C(Nc1nc(-c2ccccn2)cs1)c1ccc2[nH]cnc2c1` [drawing 1478], with 76 to 100%; and `COC(=O)c1csc2nc(-c3ccccn3)nc(N)c12` [drawing 1771], with 76 to 100%. As to `O=C(NCCc1cccnc1)c1cc2nc(-c3ccccn3)nc(O)c2s1` [drawing 1719], the inhibition at 30 µM fell in the range of 76 to 100%. `O=C(c1csc2c(O)nc(-c3ccccn3)nc12)N1CCC(c2cccnc2)CC1` [drawing 1571] returned an inhibition at 30 µM of 76 to 100%. Same read-out and setting: then `N#Cc1ccc2c(c1)CCCC2C(=O)Nc1ccnc(-c2ccccn2)n1` (stereo not shown) [drawing 1731], with 76 to 100%; and `COc1ccnc(-c2nc(O)c3c(Br)csc3n2)c1` [drawing 1637], with 76 to 100%.
